{"source": "patent US5681563A", "about": "“7-vinylidene cephalosporins and methods of using the same” (Research Corporation Technologies, Inc., priority 1996, dated 1997)", "molecular_target": "β-lactamase of Enterobacter cloacae P99 (Enterobacter cloacae, UniProt P05364)", "sequence (P05364 21-381)": "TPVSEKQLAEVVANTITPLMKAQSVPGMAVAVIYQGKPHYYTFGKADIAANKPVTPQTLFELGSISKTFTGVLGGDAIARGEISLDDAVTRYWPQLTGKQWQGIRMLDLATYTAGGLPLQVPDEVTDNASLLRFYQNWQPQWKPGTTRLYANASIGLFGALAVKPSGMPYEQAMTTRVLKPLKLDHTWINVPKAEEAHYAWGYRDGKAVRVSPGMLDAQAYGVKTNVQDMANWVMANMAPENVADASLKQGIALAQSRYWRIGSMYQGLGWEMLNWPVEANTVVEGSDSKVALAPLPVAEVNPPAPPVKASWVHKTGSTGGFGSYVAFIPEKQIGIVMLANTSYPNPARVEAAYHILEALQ", "test": "P99 β-lactamase inhibitory activity (loss of nitrocefin hydrolysis by free enzyme)", "assay_type": "biochemical", "procedure": "The activity of the present compounds against β-lactamases was determined by measuring the IC50. The IC50 value represents the concentration of inhibitor required to effect a 50% loss of activity of free enzyme. The present 7-vinylidenecephems were evaluated as inhibitors of the β-lactamase of Enterobacter cloacae P99. The IC50 value of each compound was determined as follows. Following a 10 minute incubation of a dilute solution of enzyme (2.56 nM) and inhibitor (<0.64 mM), a […] of this incubation mixture was then further diluted into 1 mL nitrocefin solution, and the rate of hydrolysis was measured during a 1 minute period by monitoring the absorbance of nitrocefin as a function of time.", "key": {"[1]": {"conditions": "P99 β-lactamase, 10 minute incubation of enzyme (2.56 nM) and inhibitor (<0.64 mM), then dilution into nitrocefin solution, rate over 1 minute"}, "[2]": {"conditions": "P99 β-lactamase, 10 minute incubation of enzyme (2.56 nM) and inhibitor (<0.64 mM), then dilution into nitrocefin solution, rate over 1 minute, read-out: IC50 (converted)"}}, "note": "Where a name gives a salt, the structure may show the parent alone. Read-outs that look alike come from different tables or passages of the source.", "data": [{"compound": "7-(2'α-t-butyl-2'β-deuteriovinylidene) cephem sulfone", "values": [{"measurement": "IC50", "setting": "[1]", "result": 0.10, "unit": "mg/mL"}]}, {"compound": "CC(C)(C)C=C=C1C(=O)N2[C@@H](C(=O)O)C(C)(C)S(=O)(=O)[C@H]12", "note": "[6-(2'α-t-butylvinylidene) penam sulfone, reference compound]", "values": [{"measurement": "IC50", "setting": "[2]", "result": 1240, "unit": "nM"}]}, {"compound": "CC(=O)OCC1=C(C(=O)O)N2C(=O)C(=C=CC(C)(C)C)[C@H]2SC1", "note": "[Compound 13, Sodium Salt of 7-(2'α-t-Butylvinylidene) Cephalosporanic Acid]", "values": [{"measurement": "IC50", "setting": "[2]", "result": 11600, "unit": "nM"}]}, {"compound": "CC(=O)OCC1=C(C(=O)[O-])N2C(=O)C(=C=CBr)C2SC1.[Na+]", "note": "(stereo not drawn) [Compound 14, Sodium Salt of 7-(2'α-Bromovinylidene) Cephalosporanic Acid]", "values": [{"measurement": "IC50", "setting": "[1]", "result": 6.16, "unit": "mg/mL"}]}, {"compound": "C=C=C1C(=O)N2C(C(=O)O)=C(COC(C)=O)CS[C@H]12", "note": "[Compound 15, Sodium Salt of 7-Vinylidene Cephalosporanic Acid]", "values": [{"measurement": "IC50", "setting": "[2]", "result": 91800, "unit": "nM"}]}, {"compound": "CC(=O)OCC1=C(C(=O)O)N2C(=O)C(=C=CC(C)(C)C)[C@H]2S(=O)(=O)C1", "note": "[Compound 16, Sodium Salt of 7-(2'α-t-Butylvinylidene) Cephalosporanic Acid Sulfone]", "values": [{"measurement": "fold better inhibitor than clavulanic acid", "result": "~350", "unit": "fold"}, {"measurement": "fold better inhibitor than tazobactam", "result": "approximately five"}, {"measurement": "β-lactamase inhibition (in words)", "result": "most potent inhibitor"}, {"measurement": "IC50", "setting": "read-out: IC50 (converted)", "result": 135, "unit": "nM"}]}, {"compound": "C=C=C1C(=O)N2C(C(=O)O)=C(COC(C)=O)CS(=O)(=O)[C@H]12", "note": "[Compound 17, 7-vinylidenecephem sulfone]", "values": [{"measurement": "IC50", "setting": "[2]", "result": 351, "unit": "nM"}]}]}
